The text below walks through data of US8765994B2, “Ship 1 modulators” (The University of British Columbia, priority 2001, dated 2014).

For one test, the target named is T1, SHIP 1 enzyme (Homo sapiens, UniProt Q92835).
T1 construct: hemagglutinin (HA); hexahistidine (His6); made in house
T1 sequence (Q92835 1-1189): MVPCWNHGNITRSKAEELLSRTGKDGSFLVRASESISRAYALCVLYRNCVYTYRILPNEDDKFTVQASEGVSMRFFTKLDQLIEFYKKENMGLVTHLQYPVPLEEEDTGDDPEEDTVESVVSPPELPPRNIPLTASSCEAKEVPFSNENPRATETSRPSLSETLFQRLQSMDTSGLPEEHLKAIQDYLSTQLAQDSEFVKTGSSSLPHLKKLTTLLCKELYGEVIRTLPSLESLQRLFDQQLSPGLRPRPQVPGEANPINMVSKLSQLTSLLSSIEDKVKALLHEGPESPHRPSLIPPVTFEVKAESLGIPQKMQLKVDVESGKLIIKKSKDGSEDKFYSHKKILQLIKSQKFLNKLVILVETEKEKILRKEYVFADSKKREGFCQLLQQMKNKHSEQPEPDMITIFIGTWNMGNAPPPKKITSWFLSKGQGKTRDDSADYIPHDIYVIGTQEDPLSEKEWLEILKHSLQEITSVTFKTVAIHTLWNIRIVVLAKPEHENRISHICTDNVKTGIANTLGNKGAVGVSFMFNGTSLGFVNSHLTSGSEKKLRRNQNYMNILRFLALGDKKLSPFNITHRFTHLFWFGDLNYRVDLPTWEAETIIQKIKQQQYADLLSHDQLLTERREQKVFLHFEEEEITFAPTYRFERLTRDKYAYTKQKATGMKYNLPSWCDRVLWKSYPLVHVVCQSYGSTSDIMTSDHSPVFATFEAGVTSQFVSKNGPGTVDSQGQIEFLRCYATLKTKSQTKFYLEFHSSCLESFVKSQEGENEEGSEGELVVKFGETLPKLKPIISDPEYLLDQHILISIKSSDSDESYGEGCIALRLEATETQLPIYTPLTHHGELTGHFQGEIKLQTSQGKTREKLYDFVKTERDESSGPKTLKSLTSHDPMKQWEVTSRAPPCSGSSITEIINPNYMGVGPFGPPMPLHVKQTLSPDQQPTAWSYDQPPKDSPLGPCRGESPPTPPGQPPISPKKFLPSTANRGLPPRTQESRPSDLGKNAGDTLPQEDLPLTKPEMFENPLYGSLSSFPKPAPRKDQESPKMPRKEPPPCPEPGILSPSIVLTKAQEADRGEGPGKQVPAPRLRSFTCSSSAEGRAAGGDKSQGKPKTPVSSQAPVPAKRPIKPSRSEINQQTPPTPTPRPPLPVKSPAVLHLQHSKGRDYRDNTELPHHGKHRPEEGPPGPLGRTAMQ
Briefly: SHIP 1 enzyme assay (inorganic phosphate release, malachite green). Format: biochemical. Conditions: FIG. 1. The protocol:
The assay was performed in 96-well microtitre plates. SHIP 1 enzyme was produced with a hemagglutinin and a hexahistidine tag, from a mammalian expression vector. The His tag was employed to enhance purification. SHIP 1 enzyme (10 ng) was incubated with extract or DMSO for 15 minutes at room temperature before addition of 200 µM inositol-1,3,4,5-tetrakisphosphate. The reaction was allowed to proceed for 20 minutes at 37 degrees C. The amount of inorganic phosphate released was then assessed by the addition of malachite green reagent followed by an absorbance measurement at 650 nm.

The test system of a further test is SHIP 1−/− macrophages. Description: Macrophage NO release assay in SHIP 1-/- macrophages. Format: cell-based. The note with it: FIG. 2. On the procedure: For the NO release assay, wild-type or SHIP 1−/− macrophage cells were aliquoted into microtitre plates (5×10^4/well) and activated with […] endotoxin (LPS) in the presence or absence of test compound or DMSO carrier. The cells were incubated at 37° C., 5% CO2 for 24 hours and the culture supernatant was removed for NO determination using the Griess reagent. Alternatively, J774.1a macrophage cells were treated with 10 ng/ml of test compound dissolved in DMSO for 40 minutes prior to the addition of LPS. Culture supernatants were collected after 24 hr. for determination of NO concentration using the Griess reagent.

The subject of test [1] is bone marrow derived mast cells. Briefly: Mast cell activation assay (β-hexosaminidase release). Format: cell-based. The note with it: FIG. 3. On the procedure: For the mast cell activation assay, bone marrow derived mast cells were incubated at 4° C. with anti-DNP IgE for 1 hr. They were then washed twice with 23° C. Tyrode's buffer, and incubated in the presence of test compound or vehicle control for 30 minutes before a 15 minute treatment with DNP-human serum albumin. The degree of degranulation was determined by measuring the release of β-hexosaminidase.

A further test deals with antitrypanosomal. The note with it: reported in literature; cited from earlier work.
For another test, the system named is antiplasmodial. Conditions: reported in literature; cited from earlier work.

As for `COC(=O)c1cc(O)c(O)c2c1[C@]1(C)CC[C@H]3C(C)(C)CCC[C@]3(C)[C@H]1C2` [Pelorol, pelorol], the “Activation of SHIP 1 in enzyme assay (assay-guided fractionation)” value at SHIP 1 enzyme was “active compound”. Besides, in the test on SHIP 1−/− macrophages, the “Inhibition of NO release in SHIP 1−/− macrophages” value is given as “not observed”. In addition, the “IgE induced mast cell degranulation” value in test [1] is “significantly reduced”. For the same compound, in the test with antitrypanosomal, the antitrypanosomal effects entry is on record as “weak”. The antiplasmodial effects entry in the test with antiplasmodial is “weak”.
